From patent US20260297060A1, “COMPOUNDS FOR THE DEGRADATION OF MUTANT BRAF” (C4 THERAPEUTICS, INC., priority 2023, published 2026)
Like-named read-outs stand apart in the source and are kept apart here. Each block holds one molecule with its values, some of them ahead of it.

Tests used:
[1] = target: T1, human bile salt export pump (BSEP) efflux transporter (Homo sapiens, UniProt O95342); assay: BSEP Vesicular Transport Inhibition Assay (IC50 determination); format: biochemical; conditions: human BSEP (HEK293) vesicles; taurocholate 0.2 μM; 4 mM Mg-ATP; 10 concentrations, 1 replicate; in nM
T1 construct: purchased SOLVO Biotechnology Charles River Laboratories, Szeged, Hungary; host or cells: HEK293 (inside out membrane vesicles)
T1 sequence (O95342 whole entry): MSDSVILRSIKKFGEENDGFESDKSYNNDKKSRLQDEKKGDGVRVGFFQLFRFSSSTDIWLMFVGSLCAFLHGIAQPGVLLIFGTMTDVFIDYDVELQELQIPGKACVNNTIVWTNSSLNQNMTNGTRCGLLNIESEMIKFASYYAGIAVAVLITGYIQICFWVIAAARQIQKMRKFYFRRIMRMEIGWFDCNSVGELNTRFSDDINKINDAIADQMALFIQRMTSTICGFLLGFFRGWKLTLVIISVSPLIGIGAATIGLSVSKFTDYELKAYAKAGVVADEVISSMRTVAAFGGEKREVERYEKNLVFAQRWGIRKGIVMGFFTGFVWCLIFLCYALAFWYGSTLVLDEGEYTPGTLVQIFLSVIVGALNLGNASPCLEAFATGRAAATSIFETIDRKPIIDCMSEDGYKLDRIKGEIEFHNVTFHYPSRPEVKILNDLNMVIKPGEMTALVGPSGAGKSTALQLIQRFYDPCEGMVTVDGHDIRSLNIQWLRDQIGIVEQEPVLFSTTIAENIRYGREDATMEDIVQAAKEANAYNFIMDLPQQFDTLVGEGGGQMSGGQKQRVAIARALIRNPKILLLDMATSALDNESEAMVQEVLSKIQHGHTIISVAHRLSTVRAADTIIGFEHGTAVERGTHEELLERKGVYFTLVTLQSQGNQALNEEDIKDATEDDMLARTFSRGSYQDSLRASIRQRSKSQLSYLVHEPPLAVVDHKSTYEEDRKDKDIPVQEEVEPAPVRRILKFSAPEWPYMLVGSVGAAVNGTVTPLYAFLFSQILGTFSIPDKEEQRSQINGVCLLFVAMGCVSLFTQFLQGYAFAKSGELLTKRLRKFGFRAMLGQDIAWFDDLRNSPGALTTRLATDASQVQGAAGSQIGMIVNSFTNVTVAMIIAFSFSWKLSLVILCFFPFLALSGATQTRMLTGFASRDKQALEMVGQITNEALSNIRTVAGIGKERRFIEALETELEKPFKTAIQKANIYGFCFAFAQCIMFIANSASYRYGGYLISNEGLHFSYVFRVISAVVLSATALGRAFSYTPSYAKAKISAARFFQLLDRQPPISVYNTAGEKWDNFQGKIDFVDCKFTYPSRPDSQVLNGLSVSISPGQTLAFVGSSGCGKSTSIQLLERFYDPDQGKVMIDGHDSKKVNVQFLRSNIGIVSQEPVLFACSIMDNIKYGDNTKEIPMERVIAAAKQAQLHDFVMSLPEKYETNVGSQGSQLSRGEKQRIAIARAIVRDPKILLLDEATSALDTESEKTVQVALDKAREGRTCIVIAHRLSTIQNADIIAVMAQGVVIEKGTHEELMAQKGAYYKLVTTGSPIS
Method in brief: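 Inside-out membrane vesicles from HEK293 cells expressing human BSEP were incubated with taurocholate probe substrate and compound (10 concentrations, single replicate) with 4 mM Mg-ATP, or 4 mM AMP for background, for 5 min at 37 °C. Vesicle-trapped substrate was quantified by liquid scintillation counting after filtration.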

[2] = Example 6 pharmacokinetics assay for PKPD study (plasma, tumor, liver); format: in vivo, BALB/c nude mice; conditions: mouse, po, single dose
Method: For the pharmacokinetic/pharmacodynamic (PKPD) study, compounds were tested in the A375 human melanoma xenografts. Known BRAF inhibitors encorafenib, and dabrafenib were used as positive controls. Encorafenib, dabrafenib, Compound 83, Compound 93, Compound 70, and Compound 54 were administered to BALB/c nude mice bearing A375 tumors on PG-D1 and dosed orally (PO) once. Encorafenib was dosed at 35 mg/kg. Dabrafenib was dosed at 100 mg/kg. Compound 83, Compound 93, Compound 70, and Compound 54 were dosed at 10 mg/kg. The plasma and tumor samples were collected at 1, 6, 12 and 24 hours, and liver samples were collected at 6 hours and 12 hours post the single dose. This study was non-GLP study.
The plasma samples were collected at predetermined time points for PK analysis. The mice were euthanized at predetermined time points post the treatment. The blood samples were collected into the 1.5 mL Eppendorf tubes containing 15 μL of 0.5 M EDTA-K2. And then the anticoagulant blood samples were centrifuged at 2,500 g at 4° C. for 15 minutes. The plasma samples were separated into 2 aliquots. The 1st was used for PK analysis, and the 2nd served as backup. The samples were stored at −80° C. before bioanalysis.
The tumor samples were collected at predetermined time points for PK and WB analysis (B-RAF and p-ERK). The tumor was dissected out and split into 3 parts. The 1st part was used for PK analysis, the 2nd part was used for WB analysis and the last one served as backup for study. The samples were transferred into pre-labeled tubes and quickly froze in liquid nitrogen within 2 minutes after dissection. The samples were stored at −80° C. before bioanalysis.
Liver samples were collected at predetermined time points for PK analysis. The left lobe of the liver was dissected out and split into 2 parts. The 1st part was used for PK analysis and the 2nd part served as the backup for the study. The samples were transferred into pre-labeled tubes and quickly froze in liquid nitrogen within 2 minutes after dissection. The samples were stored at −80° C. before bioanalysis.
For PKPD study, the harvested plasma, tumor and liver were processed for pharmacokinetics analysis by LC/MS/MS with a concentration range of 0.5-1000 ng/mL for Encorafenib and Dabrafenib in plasma, 0.05-100 ng/mL for Encorafenib and Dabrafenib in tumor, 0.2-200 ng/mL for Encorafenib and Dabrafenib in liver, 2.0-2000 ng/mL for compound 93, compound 83, compound 54 and compound 70 in liver, 50.0-50000 ng/mL for compound 83 and compound 70 in plasma, 0.5-1000 ng/mL for compound 83 and compound 70 in tumor, 1.0-2000 ng/mL for compound 93 in plasma, 10.0-20000 ng/mL for compound 54 in plasma, 0.5-500 ng/mL for compound 93 and compound 54 in tumor.

[3] = liver, 100 mg/kg, read-out: Concentration in Liver (mean ± SEM)
[4] = plasma, 100 mg/kg, read-out: Concentration in Plasma (mean ± SEM)
[5] = tumor, 100 mg/kg, read-out: Concentration in Tumor (mean ± SEM)
[6] = liver, 35 mg/kg, read-out: Concentration in Liver (mean ± SEM)
[7] = plasma, 35 mg/kg, read-out: Concentration in Plasma (mean ± SEM)
[8] = tumor, 35 mg/kg, read-out: Concentration in Tumor (mean ± SEM)

SMILES: CO[C@@H]1CCN(S(=O)(=O)Nc2ccc(F)c(Oc3ccc4ncn(C5CC6(CCN(C7CC8(C7)CN(c7cc9c(cc7F)c(N7CCC(=O)NC7=O)nn9C)C8)CC6)C5)c(=O)c4c3)c2C#N)C1 (stereo partly drawn) [Compound 269, (3R)-N-[2-cyano-3-[3-[7-[2-[3-(2,4-dioxohexahydropyrimidin-1-yl)-5-fluoro-1-methyl-indazol-6-yl]-2-azaspiro[3.3]heptan-6-yl]-7-azaspiro[3.5]nonan-2-yl]-4-oxo-quinazolin-6-yl]oxy-4-fluoro-phenyl]-3-methoxy-pyrrolidine-1-sulfonamide]
BSEP Inhibition/IC50 [1]: >40000

SMILES: COC1CN(S(=O)(=O)Nc2ccc(F)c(Oc3ccc4ncn(C5CC6(CCN(C7CC8(C7)CN(c7cc9c(cc7F)c(N7CCC(=O)NC7=O)nn9C)C8)CC6)C5)c(=O)c4c3)c2C#N)C1 (stereo not shown) [Compound 280, N-[2-cyano-3-[3-[7-[2-[3-(2,4-dioxohexahydropyrimidin-1-yl)-5-fluoro-1-methyl-indazol-6-yl]-2-azaspiro[3.3]heptan-6-yl]-7-azaspiro[3.5]nonan-2-yl]-4-oxo-quinazolin-6-yl]oxy-4-fluoro-phenyl]-3-methoxy-azetidine-1-sulfonamide]
BSEP Inhibition/IC50 [1]: 26550

concentration at 6 h [2, 3]: 157 ± 12.3 ng/g | concentration at 12 h [2, 3]: 19.2 ± 5.84 ng/g | concentration at 1 h [2, 4]: 276 ± 17.2 ng/mL | concentration at 6 h [2, 4]: 46.2 ± 5.05 ng/mL | concentration at 12 h [2, 4]: 6.74 ± 2.73 ng/mL | concentration at 24 h [2, 4]: 0.725 ± 0.11 ng/mL | concentration at 1 h [2, 5]: 225 ± 29.2 ng/g | concentration at 6 h [2, 5]: 32.8 ± 0.26 ng/g | concentration at 12 h [2, 5]: 9.59 ± 1.68 ng/g | concentration at 24 h [2, 5]: 1.34 ± 0.369 ng/g
SMILES: CC(C)(C)c1nc(-c2cccc(NS(=O)(=O)c3c(F)cccc3F)c2F)c(-c2ccnc(N)n2)s1 [Dabrafenib, dabrafenib, reference compound]

SMILES: COC(=O)N[C@@H](C)CNc1nccc(-c2cn(C(C)C)nc2-c2cc(Cl)cc(NS(C)(=O)=O)c2F)n1 [Encorafenib, encorafenib, reference compound]
concentration at 6 h [2, 6]: 375 ± 82 ng/g | concentration at 12 h [2, 6]: 12.6 ± 5.14 ng/g | concentration at 1 h [2, 7]: 5720 ± 493 ng/mL | concentration at 6 h [2, 7]: 654 ± 169 ng/mL | concentration at 12 h [2, 7]: 17.3 ± 7.09 ng/mL | concentration at 24 h [2, 7]: 0.895 ng/mL | concentration at 1 h [2, 8]: 1250 ± 161 ng/g | concentration at 6 h [2, 8]: 135 ± 22.8 ng/g | concentration at 12 h [2, 8]: 18.1 ± 7.47 ng/g | concentration at 24 h [2, 8]: 2.63 ± 0.386 ng/g
